Assay results reported in patent US20110190503A1, “Thiazolopyridin-2-yloxy-phenyl and thiazolopyrazin-2-yloxy-phenyl amines as modulators of leukotriene A4 hydrolase” (Janssen Pharmaceutical NV, priority 2008, published 2011).
Structures can show the parent of a compound that is named as a salt.

Molecular target: T1, recombinant human LTA4 hydrolase (rhLTA4H) (Homo sapiens, UniProt P09960)
T1 construct: made in house; host or cells: Spodoptera frugiperda (Sf-9) cells, recombinant baculovirus (pFastBac1)
T1 sequence (P09960 1-611): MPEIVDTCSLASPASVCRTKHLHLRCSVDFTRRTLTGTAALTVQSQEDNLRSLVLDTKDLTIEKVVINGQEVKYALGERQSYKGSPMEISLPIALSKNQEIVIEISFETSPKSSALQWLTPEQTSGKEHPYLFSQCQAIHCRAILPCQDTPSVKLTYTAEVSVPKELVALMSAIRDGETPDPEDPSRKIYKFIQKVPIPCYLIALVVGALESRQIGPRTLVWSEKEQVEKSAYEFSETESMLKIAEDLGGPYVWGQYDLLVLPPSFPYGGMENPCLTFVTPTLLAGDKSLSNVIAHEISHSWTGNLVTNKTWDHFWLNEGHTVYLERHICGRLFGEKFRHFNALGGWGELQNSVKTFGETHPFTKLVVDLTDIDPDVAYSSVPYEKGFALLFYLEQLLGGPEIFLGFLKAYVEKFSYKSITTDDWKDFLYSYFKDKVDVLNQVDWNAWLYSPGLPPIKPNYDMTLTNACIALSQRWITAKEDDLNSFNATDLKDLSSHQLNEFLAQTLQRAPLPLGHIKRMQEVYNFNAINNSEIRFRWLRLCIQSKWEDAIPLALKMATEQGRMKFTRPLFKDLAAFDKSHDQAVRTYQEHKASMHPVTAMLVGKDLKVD
Test: Recombinant human LTA4 hydrolase assay for LTA4 hydrolase inhibitor activity
Format: biochemical
Settings: rhLTA4H, LTA4 substrate, LTB4 by immunoassay; single determination or average; read-out: IC50
Procedure: Assay 1: Recombinant Human LTA4 Hydrolase Assay for LTA4 Hydrolase Inhibitor Activity
Compounds of the present invention were tested for LTA4 hydrolase inhibitor activity against recombinant human LTA4 hydrolase (rhLTA4H). Vectors were prepared and used to express rhLTA4H essentially as follows: LTA4 hydrolase encoding DNA was amplified by polymerase chain reaction (PCR) using a human placental cDNA library as a template. […] The amplified 1.9 kb DNA fragment encoding LTA4 hydrolase was isolated and cloned into the pFastBac1 vector (Invitrogen). Recombinant baculovirus was generated as described by the manufacturer, and used to infect Spodoptera frugiperda (Sf-9) cells. […] The purified enzyme solution was adjusted to contain 0.29 mg/mL LTA4 hydrolase, 50 mM Tris (pH 8.0), 150 mM NaCl, 5 mM dithiothreitol, 50% glycerol, and EDTA-free Complete protease inhibitor cocktail (Roche).
LTA4 substrate was prepared from the methyl ester of LTA4 (Cayman Chemical) by treatment with 67 equiv of NaOH under nitrogen at rt for 40 min. The LTA4 substrate in its free acid form was kept frozen at −80° C. until needed. Each compound was diluted to different concentrations in assay buffer (from Assay Designs) containing 10% DMSO. A 25-μL aliquot of each compound dilution was incubated for 10 min at rt with an equal volume of assay buffer containing 10 ng of recombinant human LTA4H. The solution was then adjusted to 200 μL with assay buffer. […] Each reaction was carried out at rt for 30 min. The reaction was stopped by diluting 10 μL of the reaction mixture with 200 μL of assay buffer. LTB4 was quantified in the diluted sample by a commercially available enzyme-linked immunoassay (Cayman Chemical Co.), as recommended by the manufacturer. Positive controls, under essentially identical conditions but without addition of an inhibitor compound, and negative controls, containing all assay components except enzyme, were routinely run in each experiment. IC50 values were determined by nonlinear regression of the activity data at different compound concentrations using Graphpad Prism 4.0, one site binding competition.
The values presented here are the result of a single determination or an average of two or more determinations, as indicated in parentheses following each value. For compounds tested three or more times, the average value is followed by the standard deviation

SMILES | IC50 [µM]
CC(C)(C)C1CCN(Cc2ccc(Oc3nc4ncc(Cl)cc4s3)cc2)CC1 [Example 218, 2-{4-[(4-tert-Butylpiperidin-1-yl)methyl]phenoxy}-6-chloro[1,3]thiazolo[4,5-b]pyridine] | 0.212
O=C(c1ccco1)N1CCN(CCOc2ccc(Oc3nc4ncc(Cl)cc4s3)cc2)CC1 [Example 147, 6-Chloro-2-(4-{2-[4-(furan-2-ylcarbonyl)piperazin-1-yl]ethoxy}phenoxy)[1,3]thiazolo[4,5-b]pyridine] | 0.252
Cc1ccnc2nc(Oc3ccc(CN4C[C@H]5CC[C@@H](C4)N5C(N)=O)cc3)sc12 [Example 203, meso-3-{4-[(7-Methyl[1,3]thiazolo[4,5-b]pyridin-2-yl)oxy]benzyl}-3,8-diazabicyclo[3.2.1]octane-8-carboxamide] | 0.679
O=C(c1cccs1)N1CCN(Cc2ccc(Oc3nc4ncc(Cl)cc4s3)cc2)CC1 [Example 187, 6-Chloro-2-[(4-{[4-(2-thienylcarbonyl)piperazin-1-yl]methyl}phenyl)oxy][1,3]thiazolo[4,5-b]pyridine] | 0.29
CC(=O)N1CC(CN(C)Cc2ccc(Oc3nc4ncc(Cl)cc4s3)cc2)C1 [Example 247, 1-(1-Acetylazetidin-3-yl)-N-{4-[(6-chloro[1,3]thiazolo[4,5-b]pyridin-2-yl)oxy]benzyl}-N-methylmethanamine] | 0.033
FC1CCN(CCc2ccc(Oc3nc4nccnc4s3)cc2)CC1 [Example 180, 2-({4-[2-(4-Fluoropiperidin-1-yl)ethyl]phenyl}oxy)[1,3]thiazolo[4,5-b]pyrazine] | 0.071
CN(CCCN1CCCC1=O)CCOc1ccc(Oc2nc3ncc(Cl)cc3s2)cc1 [Example 155, 1-{3-[(2-{4-[(6-Chloro[1,3]thiazolo[4,5-b]pyridin-2-yl)oxy]phenoxy}ethyl)(methyl)amino]propyl}pyrrolidin-2-one] | 0.329
CCCN(Cc1ccc(Oc2nc3cnccc3s2)cc1)CC1CC1 [Example 186, N-(Cyclopropylmethyl)-N-{[4-([1,3]thiazolo[4,5-c]pyridin-2-yloxy)phenyl]methyl}propan-1-amine] | 0.263
O=C(O)CCN1CCN(CCc2ccc(Oc3nc4ncccc4s3)cc2)CC1 [Example 225, 3-(4-{2-[4-([1,3]Thiazolo[4,5-b]pyridin-2-yloxy)phenyl]ethyl}piperazin-1-yl)propanoic acid hydrochloride] | 0.021
c1cc(C2CCN(Cc3ccc(Oc4nc5cnccc5s4)cc3)CC2)ccn1 [Example 190, 2-({4-[(4-Pyridin-4-ylpiperidin-1-yl)methyl]phenyl}oxy)[1,3]thiazolo[4,5-c]pyridine] | 0.455
c1ccc(OC2CCN(CCOc3ccc(Oc4nc5ncccc5s4)cc3)CC2)cc1 [Example 8, 2-{4-[2-(4-Phenoxypiperidin-1-yl)ethoxy]phenoxy}[1,3]thiazolo[4,5-b]pyridine] | 0.13
NC(=O)N1C[C@H]2CC[C@@H](C1)N2CCOc1ccc(Oc2nc3ncccc3s2)cc1 [Example 211, meso-8-{2-[4-([1,3]Thiazolo[4,5-b]pyridin-2-yloxy)phenoxy]ethyl}-3,8-diazabicyclo[3.2.1]octane-3-carboxamide] | 0.024
CC(=O)N1CCCN(Cc2ccc(Oc3nc4ccncc4s3)cc2)CC1 [Example 226, 2-{4-[(4-Acetyl-1,4-diazepan-1-yl)methyl]phenoxy}[1,3]thiazolo[5,4-c]pyridine] | 1.21
O=C1CCN(CCc2ccc(Oc3nc4nccnc4s3)cc2)CCN1 [Example 177, 1-{2-[4-([1,3]Thiazolo[4,5-b]pyrazin-2-yloxy)phenyl]ethyl}-1,4-diazepan-5-one] | 0.624
CN(C)C1CCN(Cc2ccc(Oc3nc4ncccc4s3)cc2)CC1 [Example 259, N,N-Dimethyl-1-[4-([1,3]thiazolo[4,5-b]pyridin-2-yloxy)benzyl]piperidin-4-amine] | 0.14
Cc1ccnc2nc(Oc3ccc(CN4[C@@H]5CC[C@H]4CN(S(C)(=O)=O)C5)cc3)sc12 [Example 205, meso-7-Methyl-2-(4-{[3-(methylsulfonyl)-3,8-diazabicyclo[3.2.1]oct-8-yl]methyl}phenoxy)[1,3]thiazolo[4,5-b]pyridine] | 0.049
OC1(c2ccccc2)CCN(CCc2ccc(Oc3nc4ncccc4s3)cc2)CC1 [Example 62, 4-Phenyl-1-{2-[4-([1,3]thiazolo[4,5-b]pyridin-2-yloxy)phenyl]ethyl}piperidin-4-ol] | 0.0083
c1cnc(N2CCN(Cc3ccc(Oc4nc5nccnc5s4)cc3)CC2)nc1 [Example 167, 2-({4-[(4-Pyrimidin-2-ylpiperazin-1-yl)methyl]phenyl}oxy)[1,3]thiazolo[4,5-b]pyrazine] | 0.432
CS(=O)(=O)N1CC2CN(Cc3ccc(Oc4nc5ncc(Cl)cc5s4)cc3)CC2C1 (centres unmarked) [Example 188, 6-Chloro-2-[(4-{[5-(methylsulfonyl)hexahydropyrrolo[3,4-c]pyrrol-2(1H)-yl]methyl}phenyl)oxy][1,3]thiazolo[4,5-b]pyridine] | 0.05
Clc1cnc2nc(Oc3ccc(CCN4CCC(N5CCCCC5)CC4)cc3)sc2c1 [Example 223, 1′-(2-{4-[(6-Chloro[1,3]thiazolo[4,5-b]pyridin-2-yl)oxy]phenyl}ethyl)-1,4′-bipiperidine] | 0.563
CC(=O)N1C[C@@H]2C[C@H]1CN2CCc1ccc(Oc2nc3cccnc3s2)cc1 [Example 51, 2-(4-{2-[(1S,4S)-5-Acetyl-2,5-diazabicyclo[2.2.1]hept-2-yl]ethyl}phenoxy)[1,3]thiazolo[5,4-b]pyridine] | 0.11
CS(=O)(=O)N1C[C@H]2CC[C@@H](C1)N2CCOc1ccc(Oc2nc3ncccc3s2)cc1 [Example 213, meso-2-(4-{2-[3-(Methylsulfonyl)-3,8-diazabicyclo[3.2.1]oct-8-yl]ethoxy}phenoxy)[1,3]thiazolo[4,5-b]pyridine] | 0.034
c1cnc2sc(Oc3ccc(CCN4CCCCCC4)cc3)nc2n1 [Example 179, 2-{[4-(2-Azepan-1-ylethyl)phenyl]oxy}[1,3]thiazolo[4,5-b]pyrazine] | 0.038
CC(=O)N1[C@@H]2CC[C@H]1C[C@H](NCCOc1ccc(Oc3nc4ncccc4s3)cc1)C2 [Example 215, meso-(3-exo)-8-Acetyl-N-{2-[4-([1,3]thiazolo[4,5-b]pyridin-2-yloxy)phenoxy]ethyl}-8-azabicyclo[3.2.1]octan-3-amine hydrochloride] | 0.021
c1cc2sc(Oc3ccc(CCN4CCCC4)cc3)nc2cn1 [Example 221, 2-[4-(2-Pyrrolidin-1-ylethyl)phenoxy][1,3]thiazolo[4,5-c]pyridine] | 0.181
CC(C)(CO)NC(=O)C1CCN(CCOc2ccc(Oc3nc4cnccc4s3)cc2)CC1 [Example 161, N-(2-Hydroxy-1,1-dimethylethyl)-1-(2-{[4-([1,3]thiazolo[4,5-c]pyridin-2-yloxy)phenyl]oxy}ethyl)piperidine-4-carboxamide] | 0.535
O=C(O)C1CCN(Cc2ccc(Oc3nc4cccnc4s3)cc2)CC1 [Example 132, 1-[4-([1,3]Thiazolo[5,4-b]pyridin-2-yloxy)benzyl]piperidine-4-carboxylic acid] | 1
c1ccc2c(c1)CCCN2CCOc1ccc(Oc2nc3ncccc3s2)cc1 [Example 7, 1-{2-[4-([1,3]Thiazolo[4,5-b]pyridin-2-yloxy)phenoxy]ethyl}-1,2,3,4-tetrahydroquinoline] | 0.31
CC(=O)N1[C@@H]2CC[C@H]1C[C@H](NCc1ccc(Oc3nc4ncc(C)cc4s3)cc1)C2 [Example 181, meso-(3-exo)-8-Acetyl-N-({4-[(6-methyl[1,3]thiazolo[4,5-b]pyridin-2-yl)oxy]phenyl}methyl)-8-azabicyclo[3.2.1]octan-3-amine] | 0.332
